Assay results taken from ChEMBL document CHEMBL5120840, “Axial chirality and affinity at the GABAA receptor of triazolobenzodiazepines” (Bioorg Med Chem, 2022).
“And” between values parts separate entries of the source, which are not always exact repeats. Identical values can stand only once.

Legend:
[1] = target: GABA-A receptor; anion channel; test: Displacement of [3H]flunitrazepam from GABAA central benzodiazepine receptor in Wistar rat brain membrane without cerebellum measured after 60 mins by scintillation counting analysis; format: cell membranes
[2] = target: GABA-A receptor; anion channel (Rattus norvegicus) (UniProt O09028+P15431+P18506+P18508+P19969+P20236+P23574+P23576+P28471+P28473+P30191+P62813+P63079+P63138+Q91ZM7+Q9ES14); test: Displacement of [3H]flunitrazepam from GABAA central benzodiazepine receptor in Wistar rat brain membrane without cerebellum measured after 60 mins by scintillation counting analysis relative to control; format: cell membranes

Structure (SMILES): Clc1ccc2c(c1)C(c1ccccc1Cl)=NCc1nncn1-2
- IC50 [1]: 1.94 nM

Structure (SMILES): Cc1cc(Cl)cc2c1-n1c(C)nnc1CN=C2c1ccccc1
- IC50 [1]: 210 nM and 430 nM
- inhibition [2]: < 50%

Structure (SMILES): Cc1cc(Cl)cc2c1-n1c(C)nnc1CN=C2c1ccccc1Cl
- IC50 [1]: 10.9 nM and 34 nM
- inhibition [2]: < 50%

Structure (SMILES): Cc1cc(Cl)cc2c1-n1cnnc1CN=C2c1ccccc1Cl
- IC50 [1]: 23 nM
